According to article PMC8625065 (Molecules, 2021):
Where a name gives a salt, the structure may show the parent alone. Marks after values point to notes of the source that are not given here.

Columns and labels:
[1] = test system: poly (dAdT)2 (DNA, polymer) AT; assay: UV thermal melting, 260 nm; conditions: Na+ (sodium cacodylate, I = 0.05 M); sodium cacodylate buffer pH 7
[2] = test system: poly (dAdT)2 (DNA, polymer) AT; assay: fluorescence titration, Scatchard; conditions: Na+ (sodium cacodylate, I = 0.05 M); sodium cacodylate buffer pH 7.0, 25 °C; polynucleotide concentration as phosphates; per base
[3] = test system: poly A-poly U (RNA, polymer) A/U; assay: fluorescence titration, Scatchard; conditions: Na+ (sodium cacodylate, I = 0.05 M); sodium cacodylate buffer pH 7.0, 25 °C; polynucleotide concentration as phosphates; per base
[4] = test system: HepG2 (hepatocellular carcinoma); assay: MTT proliferation assay, 72 h; format: cell-based, human; conditions: for IC50: Homo sapiens, HepG2 cells, MTT, 72 h
Experimental: (§1) The cell lines HeLa (cervical carcinoma), SW620 (colorectal adenocarcinoma, metastatic), A549 (lung adenocarcinoma), HepG2 (hepatocellular carcinoma) and HFF (human foreskin fibroblasts) were cultured as monolayers and maintained in Dulbecco’s modified Eagle medium (DMEM), supplemented with 10% fetal bovine serum (FBS), 2mM L-glutamine, 100 U/mL penicillin and 100 μg/mL streptomycin in a humidified atmosphere with 5% CO2 at 37 °C.
(§2) Cells were seeded onto 96-well microtiter plates at a seeding density of 3000 cells/well for carcinoma cell lines, and 5000 cells/well for normal human fibroblasts. The next day, cells were treated with test agents at five different concentrations (0.01–100 µM) and further incubated for 72 h. […] Following 72 h incubation, the MTT assay was performed and measured absorbances were transformed into percentage of cell growth as described previously. Results were obtained from three independent experiments.

[5] = test system: SW620 (colorectal adenocarcinoma, metastatic); assay: MTT proliferation assay, 72 h; format: cell-based, human; conditions: for IC50: Homo sapiens, SW-620, SW620 cells, MTT, 72 h
Experimental: as §1, §2

[6] = test system: HeLa (cervical carcinoma); assay: MTT proliferation assay, 72 h; format: cell-based, human; conditions: for IC50: Homo sapiens, HeLa cells, MTT, 72 h
Experimental: as §1, §2

p(dAdT)2 (AT-DNA) = assay: Fluorimetric titration, Scatchard processing; format: binding; conditions: p(dAdT)2, pH 7.0, sodium cacodylate buffer, I = 0.05 mol dm^-3
Experimental: (§3) Compound solutions were used for measurements in aqueous buffer (pH = 7, sodium cacodylate buffer, I = 0.05 mol dm^−3). Polynucleotides were purchased as noted: poly A-poly U, poly (dAdT)2 and calf thymus (ct)DNA (Sigma-Aldrich). Polynucleotides were dissolved in Na-cacodylate buffer, I = 0.05 mol dm^−3, pH = 7. The calf thymus ctDNA was additionally sonicated and filtered through a […]. Polynucleotide concentration was determined spectroscopically as the concentration of phosphates.
(§4) Fluorescence spectra were recorded on a Varian Cary Eclipse spectrophotometer at 25 °C using appropriate 1cm path quartz cuvettes. Fluorometric experiments were performed at pH = 7 (I = 0.05 mol dm^−3, sodium cacodylate buffer) by adding portions of polynucleotide solution into the solution of the studied compound. In fluorometric experiments, an excitation wavelength of λexc ≥ 300 nm was used to avoid the inner filter effect caused due to increasing absorbance of the polynucleotide. Emissions were determined in the range λem = 300–600 nm. Values for Ks obtained by processing titration data using the Scatchard equation [40], in most titrations have satisfactory correlation coefficients (≥0.98).

ctDNA (calf thymus DNA) = assay: Fluorimetric titration, Scatchard processing; format: binding; conditions: pH 7.0, sodium cacodylate buffer, I = 0.05 mol dm^-3
Experimental: as §3, §4

poly A-poly U (AU-RNA) = assay: Fluorimetric titration, Scatchard processing; format: binding; conditions: pH 7.0, sodium cacodylate buffer, I = 0.05 mol dm^-3
Experimental: as §3, §4

[7] = test system: A549 (lung adenocarcinoma); assay: MTT proliferation assay, 72 h; format: cell-based; conditions: Homo sapiens, A549 cells
Experimental: as §1, §2

[8] = test system: HFF (human foreskin fibroblasts); assay: MTT proliferation assay, 72 h, non-tumor cells; format: cell-based; set-up: selectivity index (SI): reference not given here; conditions: for IC50: Homo sapiens, Fibroblast, non-tumor HFF fibroblasts, MTT, 72 h
Experimental: as §1, §2

poly(dAdT)2 = assay: Thermal melting experiment; format: binding; conditions: poly(dAdT)2, r = 0.3, pH 7.0; error ±0.5 °C
Experimental: (§5) Compound solutions were used for measurements in aqueous buffer (pH = 7, sodium cacodylate buffer, I = 0.05 mol dm^−3). Polynucleotides were purchased as noted: poly A-poly U, poly (dAdT)2 and calf thymus (ct)DNA (Sigma-Aldrich). Polynucleotides were dissolved in Na-cacodylate buffer, I = 0.05 mol dm^−3, pH = 7. The calf thymus ctDNA was additionally sonicated and filtered through a […]. Polynucleotide concentration was determined spectroscopically as the concentration of phosphates. UV–Vis spectra were recorded on a Varian Cary 100 Bio spectrophotometer using 1cm path quartz cuvettes. Calibration experiments were performed at 25 °C and pH = 7 (I = 0.05 mol dm^−3, sodium cacodylate buffer). Thermal melting curves for DNA and their complexes with studied compounds were determined as previously described by following the absorption change at 260 nm as a function of temperature. The absorbance of the ligands was subtracted from every curve and the absorbance scale was normalized. Tm values are the midpoints of the transition curves determined from the maximum of the first derivative and checked graphically by the tangent method. The ΔTm values were calculated by subtracting the Tm of the free nucleic acid from the Tm of the complex. Every ΔTm value reported here was the average of at least two measurements. The error in ΔTm is ±0.5 °C.

poly A-poly U = assay: Thermal melting experiment; format: binding; conditions: r = 0.3, pH 7.0, error ±0.5 °C
Experimental: as §5

ctDNA = assay: Thermal melting experiment; format: binding, calf; conditions: r = [compound]/[polynucleotide] = 0.3, pH 7.0, error ±0.5 °C
Experimental: as §5

[9] = test system: poly A-poly U (RNA, polymer) A/U; assay: UV thermal melting, 260 nm; conditions: Na+ (sodium cacodylate, I = 0.05 M); sodium cacodylate buffer pH 7
[10] = test system: poly A-poly U (RNA, polymer) A/U; assay: CD titration; conditions: Na+ (sodium cacodylate, I = 0.05 M); sodium cacodylate buffer pH 7, 25 °C; weak negative ICD near 300 nm, intercalation
[11] = Solubility of stock solution in water; format: physicochemical; conditions: c = 2 × 10^−3 mol dm^−3
From the text: Based upon the antiproliferative activity, several compounds from a series of novel amidine- and amidoxime-substituted heterocycles (5, 6, 8–11 and 20) were selected for the study with calf thymus DNA (ctDNA), alternating AT-DNA (poly (dAdT)2) and AU-RNA (poly A-poly U).

Row | SMILES | binding [1] | logKs [2] | logKs [3] | IC50 [4] | IC50 [5] | IC50 [6] | logKs (p(dAdT)2 (AT-DNA)) | logKs (ctDNA (calf thymus DNA)) | logKs (poly A-poly U (AU-RNA)) | IC50 [7] | IC50 [8] | ΔTm (poly(dAdT)2) | ΔTm (poly A-poly U) | ΔTm (ctDNA) | melting point | further results
1 | c1cc(C2=NCCN2)c2ccn(Cc3cn(-c4ccc(C5=NCCN5)cc4)nn3)c2c1 | yes | 6.6 | 4.2 | – | – | – | – | – | – | – | – | – | – | – | – | –
2 | Cl.Cl.c1cc(C2=NCCN2)ccc1OCc1cn(-c2ccc(C3=NCCN3)cc2)nn1 [Compound 5, 1-(4-(4,5-Dihydro-1H-imidazol-2-yl)-phenyl]-4-((4-(4,5-dihydro-1H-imidazol-2-yl)phenyloxy)methyl]-1H-1,2,3-triazole dihydrochloride] | yes | 6.5 | 7.0 | 0.64 µM | 0.22 µM | 0.8 µM | 6.5 | 5.7 | 7.0 | 15.7 µM | < 0.01 µM | 14 °C | 2 °C | 5 °C | > 250 °C | binding [9]: yes
3 | c1cc(C2=NCCN2)c2ccn(Cc3cn(-c4ccc(C5=NCCN5)cc4)nn3)c2c1 [Compound 6, 1-((1-(4-(Dihydro-1H-imidazol-2-yl)phenyl)-1H-1,2,3-triazol-4-yl)methyl)-4-(dihydro-1H-imidazol-2-yl)-1H-indole dihydrochloride] | – | – | – | 2.37 µM | 18 µM | 13.5 µM | 6.6 | 5.0 | 4.2 | 49.9 µM | < 0.01 µM | 6 °C | 0 °C | 2 °C | – | –
4 | Cl.c1cnc2c(NCc3cn(-c4ccc(C5=NCCN5)cc4)nn3)cccc2c1 [Compound 8, 8-(((1-(4-(4,5-Dihydro-1H-imidazol-2-yl)phenyl)-1H-1,2,3-triazol-4-yl)methyl)amino)-quinoline hydrochloride] | – | 5.5 | – | 4.84 µM | 35.6 µM | 23.8 µM | 5.5 | – | – | 29.1 µM | 11.7 µM | 1 °C | 0 °C | 0 °C | 192 to 196 °C | selectivity index (SI) ([8]; normal HFF fibroblasts versus tumor cells): 2
5 | Cl.c1cnc2c(OCc3cn(-c4ccc(C5=NCCN5)cc4)nn3)cccc2c1 [Compound 9, 8-((1-(4-(4,5-Dihydro-1H-imidazol-2-yl)phenyl)-1H-1,2,3-triazol-4-yl)methyloxy)-quinoline hydrochloride] | yes | 5.8 | 5.1 | 9.07 µM | 2.69 µM | 10.3 µM | 5.8 | 5.3 | 5.1 | 25.2 µM | < 0.01 µM | 3 °C | 0 °C | 1 °C | 229 to 232 °C | –
6 | Cl.O=c1cc(OCc2cn(-c3ccc(C4=NCCN4)cc3)nn2)c2ccccc2o1 [Compound 10, 4-((1-(4-(4,5-Dihydro-1H-imidazol-2-yl)phenyl)-1H-1,2,3-triazol-4-yl)methyloxy)-coumarin hydrochloride] | yes | 6.7 | – | 3.55 µM | 1.75 µM | 1.9 µM | 6.7 | – | – | 7.86 µM | < 0.01 µM | 2 °C | 0 °C | 0 °C | – | binding [10]: yes
7 | Cl.O=c1ccc2ccc(OCc3cn(-c4ccc(C5=NCCN5)cc4)nn3)cc2o1 [Compound 11, 7-((1-(4-(4,5-Dihydro-1H-imidazol-2-yl)phenyl)-1H-1,2,3-triazol-4-yl)methyloxy)-coumarin hydrochloride] | yes | 4.9 | 4.9 | 0.28 µM | 4.77 µM | 2.13 µM | 4.9 | – | 4.9 | 4.49 µM | 3.14 µM | 2 °C | 0 °C | 0 °C | > 250 °C | selectivity index (SI) on HepG2 ([4]; HFF versus HepG2 cells): 11
8 | N/C(=N\O)c1ccc(-n2cc(COc3cccc4ccc(/C(N)=N/O)nc34)nn2)cc1 [Compound 20, (Z)-N′-Hydroxy-8-((1-(4-((Z)-N′-hydroxycarbamimidoyl)phenyl)-1H-1,2,3-triazol-4-yl)methoxy)quinoline-2-carboximidamide] | – | – | – | 51.3 µM | 7.24 µM | 7.15 µM | 4.7 ^d | 4.3 ^d | 4.6 ^d | 31.4 µM | – | 0 °C | 0 °C | 0 °C | 238 to 241 °C | selectivity index (SI) on SW620 ([5]; HFF versus SW620 cells): > 14; selectivity index (SI) on HeLa ([6]; HFF versus HeLa cells): > 14; solubility in water [11]: small aggregation
